From patent EP4768479A1 (Hubei Bio-Pharmaceutical Industrial Technological Institute …, priority 2023, dated 2025)

Experiments:
[1] = Pharmacokinetic study following single oral gavage administration to cynomolgus monkeys; assay type: in vivo; details: cynomolgus monkey, plasma, 5 mg/kg; Monkey PK PO (5 mpk)
Protocol: The compounds were dissolved in a vehicle consisting of 5% DMSO+10% Solutol+85% Saline to a concentration of 1 mg/mL, and administered at a dose of 5 mpk. The animals were weighed before the administration, and the dosing volume was calculated based on the body weight. The compounds were administered to the animals via oral gavage. Blood samples were collected via a femoral vein or other suitable methods at time points of 0.083 hours, 0.25 hours, 0.5 hours, 1 hour, 2 hours, 4 hours, 6 hours, 8 hours, and 24 hours. Approximately 1 mL of each sample was collected at each time point, anticoagulated with sodium heparin, and placed on ice immediately after the collection. After the blood samples were collected, they were placed on ice and centrifuged within 1 hour to separate plasma (centrifugation conditions: 2,200g, 10 minutes, and 2°C to 8°C). The plasma samples were stored in a -80°C refrigerator until analysis.
The bioanalytical method and sample analysis were performed by the Analytical Laboratory of Medicilon Inc. (Shanghai, China). Intra-day accuracy of quality control samples was evaluated concurrently with the sample analysis, requiring that accuracy of more than 66.7% of the quality control samples fell within the range of 80% to 120%. [Table 5] Pharmacokinetics of Compounds in Monkeys

[2] = Bidirectional permeability study in Caco-2 cells; assay type: in vitro ADME; details: human, pH 7.4, Caco-2, 2.00 µM, A to B
Protocol: Caco-2 cells were inoculated onto […] (PET) in 96-well inserted plates at a rate of 1×10^5 cells/cm^2, and the medium was changed every 4 to 5 days until day 21 to 28, to form a fused cell monolayer. The transport buffer in the assay was HBSS and 10.0 mM HEPES, with a pH of 7.40±0.05. The test compounds were subjected to a bidirectional test at 2.00 µM in the presence and absence of GF120918 (10.0 µM). Digoxin was subjected to a bidirectional test at 10.0 µM in the presence and absence of GF120918 (10.0 µM), while Nadolol and Metoprolol were subjected to a test from direction A to direction B at 2.00 µM in the absence of GF120918 (10.0 µM). The above tests were performed in duplicate. The final concentration of DMSO was adjusted to be lower than 1%. The plate was incubated in a CO2 incubator at 37°C±1°C for 2 hours, and 5% CO2 was added under saturated humidity without shaking. All the samples, after being mixed with acetonitrile containing internal standard, were centrifuged at 3,200 g for 10 minutes. For Nadolol and Metoprolol, 200 µL of supernatant was diluted with 600 µL of distilled water for LC-MS/MS analysis. For Digoxin and test compounds, 200 µL of supernatant was diluted with 200 µL of distilled water for LC-MS/MS analysis. The concentrations of the test compounds and control compounds in the starting solution, the donor solution, and the acceptor solution were quantified by LC-MS/MS based on a peak area ratio of the analyte to the internal standard.
After the transport assay, the integrity of the Caco-2 cell monolayer was determined using Lucifer Yellow Exclusion Assay. [Table 4] Bidirectional Permeability of Compounds in Caco-2 Cells

AT2R = biological target: T1, AT2R (Homo sapiens, UniProt P50052); assay: Binding assay of compounds to AT2R (Tag-lite HTRF ligand binding kit)
T1 construct: purchased Cisbio #C1TT1AT2
T1 sequence (P50052 1-363): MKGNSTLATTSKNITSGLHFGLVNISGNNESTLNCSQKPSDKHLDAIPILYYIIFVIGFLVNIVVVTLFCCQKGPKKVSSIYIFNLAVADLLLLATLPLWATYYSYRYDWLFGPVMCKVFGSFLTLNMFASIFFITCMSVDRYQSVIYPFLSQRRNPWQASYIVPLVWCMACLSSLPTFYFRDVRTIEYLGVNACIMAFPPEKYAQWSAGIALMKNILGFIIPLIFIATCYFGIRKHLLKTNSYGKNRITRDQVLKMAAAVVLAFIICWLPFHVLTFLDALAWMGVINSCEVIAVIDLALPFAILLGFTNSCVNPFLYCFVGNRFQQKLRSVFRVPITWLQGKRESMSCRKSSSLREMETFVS
Protocol: The assay was performed in accordance with the manufacturer instructions of Angiotensin AT2 Receptor Ligand Binding Assay Kit (#C1TT1AT2, Cisbio). First, a 10 mM compound stock solution was diluted in a gradient at a 5× dilution ratio (including 10 concentrations, each with two replicates). 160 nL of compounds at different concentrations was added to a 384-well plate. 40 µL of 1× TLB (TLB: Tag-lite buffer) was added to each well, and the mixture was shaken at room temperature for 15 minutes. A 15 mL centrifuge tube added with 5 mL of 1×TLB was prepared in advance. The frozen labeled cells were thawed in a water bath at 37°C (for 1 to 2 minutes), and the thawed cells were quickly transferred to the above 15 mL centrifuge tube. The mixture was mixed well and centrifuged at 1,000 g at room temperature for 5 minutes. The supernatant was removed, and the cells were resuspended by adding 2.7 mL 1× TLB. A new 384-well plate was taken, and 10 µL of mixed cells were added into the corresponding wells according to the assay design. 5 µL of 4× compound solution and 5 µL of 4× Tag-lite red fluorescent labeled ligand were added to each well. After incubation at room temperature for 1 hour, data were read using EnVision with an HTRF mode. The […] at 665nM and 615nM in each well were read respectively, and the ratio was calculated (Ratio=A665nM/B615nM). The IC50 value was calculated by means of GraphPad Prism8 software, where X represents logarithmic value of compound concentration; and Y represents ratio of A665nM/B615nM.

Question: What does the source list for `COC(=O)NS(=O)(=O)c1sc(CC(C)C)c(C)c1-c1ccc(Cn2ccnc2C(F)(F)F)cc1` [Compound I-9, Methyl ((5-isobutyl-4-methyl-3-(4-((2-(trifluoromethyl)-1H-imidazol-1-yl)methyl)phenyl)thiophen-2-yl)sulfonyl)carbamate]?
Answer: AUC(0-t) [1]: 7790 ng·h/mL; Cmax [1]: 5310 ng/mL; Papp A→B at 2 h, 2 µM [2]: 2.29 ×10⁻⁶ cm/s; IC50 (AT2R): 5.13 nM

Question: Which AUC(0-t) [1] does the source give for `Cc1c(CC(C)C)sc(S(=O)(=O)NC(=O)OCC(C)(C)O)c1-c1ccc(Cn2ccnc2C(F)(F)F)cc1` [Compound I-10, 2-hydroxy-2-methylpropyl ((5-isobutyl-4-methyl-3-(4-((2-(trifluoromethyl)-1H-imidazol-1-yl)methyl)phenyl)thiophen-2-yl)sulfonyl)carbamate] here?
Answer: 5570 ng·h/mL

Question: What about the Cmax [1] of the same compound?
Answer: 3560 ng/mL

Question: What about the Papp A→B at 2 h, 2 µM [2] of the same compound?
Answer: 2.63 ×10⁻⁶ cm/s

Question: And the IC50 (AT2R)?
Answer: 2.31 nM

Question: Which results are given for `Cc1c(CC(C)C)sc(S(=O)(=O)NC(=O)OCCO)c1-c1ccc(Cn2ccnc2C(F)(F)F)cc1` [Compound I-13, 2-hydroxyethyl ((5-isobutyl-4-methyl-3-(4-((2-(trifluoromethyl)-1H-imidazol-1-yl)methyl)phenyl)thiophen-2-yl)sulfonyl)carbamate]?
Answer: Papp A→B at 2 h, 2 µM [2]: 1.98 ×10⁻⁶ cm/s; IC50 (AT2R): 2.6 nM

Question: For `COC(=O)NS(=O)(=O)c1sc(CC(C)C)c(C)c1-c1ccc(Cn2ccnc2Cl)c(F)c1` [Compound I-14, Methyl ((3-(4-((2-chloro-1H-imidazol-1-yl)methyl)-3-fluorophenyl)-5-isobutyl-4-methylthiophen-2-yl)sulfonyl)carbamate], which AUC(0-t) [1] is on record?
Answer: 7350 ng·h/mL

Question: And the Cmax [1]?
Answer: 5040 ng/mL

Question: And the Papp A→B at 2 h, 2 µM [2]?
Answer: 3.73 ×10⁻⁶ cm/s

Question: And the IC50 (AT2R)?
Answer: 1.39 nM

Question: For `COC(=O)NS(=O)(=O)c1sc(CC(C)C)c(C)c1-c1ccc(Cn2ccnc2C(C)(C)O)cc1` [Compound I-19, Methyl ((3-(4-((2-(2-hydroxypropan-2-yl)-1H-imidazol-1-yl)methyl)phenyl)-5-isobutyl-4-methylthiophen-2-yl)sulfonyl)carbamate], which AUC(0-t) [1] is on record?
Answer: 6820 ng·h/mL

Question: What about the Cmax [1] of the same compound?
Answer: 4030 ng/mL

Question: And the Papp A→B at 2 h, 2 µM [2]?
Answer: 3.24 ×10⁻⁶ cm/s

Question: What about the IC50 (AT2R) of the same compound?
Answer: 2.91 nM

Question: What does the source list for `Cc1c(CC(C)C)sc(S(=O)(=O)Nc2ncccn2)c1-c1ccc(Cn2ccnc2Cl)cc1` [Compound I-23, 3-(4-((2-chloro-1H-imidazol-1-yl)methyl)phenyl)-5-isobutyl-4-methyl-N-(pyrimidin-2-yl)thiophene-2-sulfonamide]?
Answer: Papp A→B at 2 h, 2 µM [2]: 5.22 ×10⁻⁶ cm/s; IC50 (AT2R): 1.79 nM

Question: For `CCCCOC(=O)NS(=O)(=O)c1sc(CC(C)C)cc1-c1ccc(Cn2ccnc2)cc1` [Control Compound I, reference compound], which AUC(0-t) [1] is on record?
Answer: 4920 ng·h/mL

Question: And the Cmax [1]?
Answer: 1320 ng/mL

Question: And the Papp A→B at 2 h, 2 µM [2]?
Answer: 0.381 ×10⁻⁶ cm/s
